One data set has as its system LXFL 529L cells. Briefly: Cellular uptake into LXFL 529L cells. The note with it: for distribution cellular organelles / distribution cytosol / amount of substance within the cells: 2 hours incubation. How it is done: The compounds of Examples 1, 6 and 8 and Comparative Examples 1 and 2 were investigated with respect to their ability to penetrate LXFL 529L cells having the passage numbers P23 to P39. The amounts of the substances taken up by the cells are given depending on the concentration of the substance within the incubation medium. The time of incubation was 2 hours in all of the experiments. Furthermore, the distribution of the substance which was taken up by the cells in the cytosol and the cellular organelles (particular) was estimated and is given in the intermediate column of Table 2. Tumor cell growth inhibition was determined by the sulfo-rhodamine B assay (SRB assay) according to Skehan et al., J. Natl. Cancer Institute 82, pages 1107-1112 (1990). Incubation was conducted for three days in serum containing medium. Tumor cell lines tested were a large-cell lung carcinoma xenograft line LXFL 529 L and the mammary carcinoma line MCF-7.

The test system of data set [1] is mammary carcinoma line MCF-7. Briefly: Tumor cell growth inhibition, sulforhodamine B (SRB) assay. It counts as cell-based, human. The note with it: MCF7; three days incubation, serum containing medium. Background: The SRB assay estimates cell density from bound dye.
The conditions of data set [2]: cited from earlier work.
The test system of a further data set is OVXF1353 (ovarian). Briefly: Colony-forming assay. It counts as cell-based, human. How it is done:
(§1) The anti-tumor activity of the compounds was evaluated via a colony-forming-assay as described e.g. by D. P. Berger et al. in Annals of Oncology 1, pages 333-341 (1 990), “The clonongenic assay with human tumor xenografts, evaluation, predictive values and application for drug screening”.
(§2) The experiments were conducted using various tumor cell lines, in particular mammary carcinoma (MAXF), lung adenocarcinoma (LXFA), large-cell lung carcinoma (LXFL), small-cell lung carcinoma (LXFS), colon carcinoma (CXF), melanoma (MEXF), pancreatic carcinoma (PAXF), renal carcinoma (RXF), ovarian carcinoma (OVXF) and bladder carcinoma (BXF).

The subject of data set [3] is human tumor xenograft LXFL 529. Briefly: In vivo testing in nude mice bearing subcutaneous tumor xenograft. The note with it: for tumor growth (relative tumor volume) compared to the vehicle control (in words): LXFL 529/17, i.p., nude mice, FIG. 1. How it is done:
Compound of Examples 1, 4, 6, 8, 9 and 10 were subjected to in vivo testing in nude mice bearing subcutaneously growing human tumor xenograft LXFL 529. The indigoid bisindole derivatives were applied intraperitoneally to the animals in doses and according to the schedule as described in Table 4.
The experiments were run for 21 or 28 days. Anti-tumor activity was evaluated comparing the median tumor volume relative to control, expressed as %T/C, wherein T is the test group and C the vehicle control group. In Table 4, anti-tumor activity is given according to an activity rate scale.

Data set [4] relates to LXFL529 (lung large-cell). As to the kind of experiment: Colony-forming assay. It counts as cell-based, human.
For another data set, the system named is PAXF736 (pancreatic). As to the kind of experiment: Colony-forming assay. The note with it: for IC50: read-out: IC50 colony formation. In kind it is cell-based, human.
The test system of a further data set is MCF7X (mammary). Briefly: Colony-forming assay. The note with it: for IC50: read-out: IC50 colony formation. It counts as cell-based, human.
Data set [5] has as its system large-cell lung carcinoma xenograft line LXFL 529 L. As to the kind of experiment: Tumor cell growth inhibition, sulforhodamine B (SRB) assay. It counts as cell-based, human. The settings on record: LXFL529L; three days incubation, serum containing medium.
A further data set deals with OVXF1352 (ovarian). How it is done:
as §1, §2

Another data set concerns HT29X (colon). Briefly: Colony-forming assay. The settings on record: colon HT29X; for IC50: read-out: IC50 colony formation. It counts as cell-based, human.
For data set [6] the following is noted: dosage of 100 mg/kg up to 300 mg/kg, FIG. 2 and FIG. 4.
Description: A reduction of the body weight of the tested mice of more then 20% by weight in general is interpreted as a toxic dose.
Another data set relates to MEXF514 (melanoma). As to the kind of experiment: Colony-forming assay. In kind it is cell-based, human.
A further data set has as its system MX1 (mammary). Briefly: Colony-forming assay. In kind it is cell-based, human. The note with it: for IC50: Homo sapiens, read-out: IC50 colony formation.
A further data set concerns BXF1301 (bladder). As to the kind of experiment: Colony-forming assay. In kind it is cell-based, human.
Another data set has as its system MEXF989 (melanoma). Briefly: Colony-forming assay. In kind it is cell-based, human.
The subject of a further data set is OVXF1355 (ovarian). As to the kind of experiment: Colony-forming assay. In kind it is cell-based, human.
Another data set deals with CXF280 (colon). Briefly: Colony-forming assay. In kind it is cell-based, human. The settings on record: for IC50: read-out: IC50 colony formation.
Data set [7] has as its system LXFS650 (lung small-cell). Briefly: Colony-forming assay. In kind it is cell-based, human. The settings on record: for IC50: Homo sapiens, read-out: IC50 colony formation.
The next data set deals with PAXF546 (pancreatic). Briefly: Colony-forming assay. In kind it is cell-based, human.
A further data set deals with OVXF899 (ovarian). How it is done:
as §1, §2

The test system of another data set is MEXF515LX (melanoma). As to the kind of experiment: Colony-forming assay. It counts as cell-based, human.
In data set [8] the test system is LXFA289 (lung adenocarcinoma). As to the kind of experiment: Colony-forming assay. In kind it is cell-based, human.
The test system of the next data set is BXF1299 (bladder). As to the kind of experiment: Colony-forming assay. It counts as cell-based, human.
Setting [9] is: concentration of incubation 10 μM.
The mark [10] stands for this setting: concentration of incubation 20 μM.
Setting [11] is: read-out: IC50 colony formation.
Where [12] appears, read: Homo sapiens, read-out: IC50 colony formation.

Usually IC50 stands for the midpoint of a concentration-inhibition curve.

Like-named read-outs stand apart in the source and are kept apart here.

Turning to `O=C1Nc2ccccc2/C1=C1/Nc2ccccc2C1=O` [Example 1, Indirubin], the “uptake by the tumor cells (in words)” value with LXFL 529L cells (LXFL 529L cells) was “taken up by the tumor cells”. The distribution cellular organelles in the data set on LXFL 529L cells (setting [9]) came out at 93 ± 5.7%; in the data set with LXFL 529L cells (setting [10]), 94 ± 1.4%. Further, the distribution cytosol amounted to 7 ± 5.7% in the data set on LXFL 529L cells (setting [9]) and 6 ± 1.4% in the data set on LXFL 529L cells (setting [10]). The concentration for half-maximal inhibition (IC50) in data set [1] is 4000 ± 2000 nM; in the data set with OVXF1353 (ovarian) (setting [11]), 12300 nM; in data set [4] (setting [11]), 25300 nM; in the data set on PAXF736 (pancreatic), 5400 nM; in the data set on MCF7X (mammary), 2000 nM; in data set [5], 9900 ± 100 nM. In addition, in data set [2], the “solubility in water (in words)” value was “dissolves only poorly in water”. In addition, the IC70 colony formation in the data set with OVXF1353 (ovarian) is above 30000 nM; in [4], 35600 nM; with PAXF736 (pancreatic), above 30000 nM; in the data set with MCF7X (mammary), 6000 nM. Further, the activity rating result in data set [3] (100 mg/kg/day i.p., days 1-5, 8-9) is given as “+ (tumor inhibition T/C > 25-50%)”; in data set [3] (200 mg/kg/day i.p., days 1-5, 8-9), “++ (tumor stasis T/C ≦ 25%)”. Also, the “tumor growth (relative tumor volume) compared to the vehicle control (in words)” value in data set [3] is recorded as “significantly inhibited the tumor growth”.
For the molecule `Cc1ccc2c(c1)/C(=C1/Nc3ccccc3C1=O)C(=O)N2` [Example 6, 5-Methylindirubin], the IC70 colony formation in the data set on OVXF1352 (ovarian) is above 30000 nM; in the data set on PAXF736 (pancreatic), 27500 nM; in the data set on HT29X (colon), 14400 nM; in the data set with MCF7X (mammary) it was 1200 nM; with MEXF514 (melanoma), 27800 nM. Also, the half-inhibitory concentration (IC50) was 1000 nM in the data set on OVXF1352 (ovarian) (setting [11]); 4800 ± 500 nM in [1]; 15400 nM in the data set with PAXF736 (pancreatic); below 1000 nM in the data set on HT29X (colon); below 1000 nM in the data set on MCF7X (mammary); 19200 nM with MEXF514 (melanoma) (setting [11]). In addition, 7500 ± 500 nM corresponded to half-maximal inhibition in data set [5] (IC50). In addition, the “ability to penetrate the cellular membrane / uptake compared to indirubin (Example 1) (in words)” value in the data set on LXFL 529L cells (LXFL 529L cells) is “substantially improved”. The “uptake by the tumor cells (in words)” value in the data set on LXFL 529L cells (LXFL 529L cells) is “taken up by the tumor cells”. Also, the “amount of substance within the cells” value in the data set on LXFL 529L cells (setting [9]) is listed as 0.52 ± 0.1; in the data set with LXFL 529L cells (setting [10]) it was 0.86 ± 0.22. Besides, the distribution cellular organelles in the data set on LXFL 529L cells (setting [9]) is 87 ± 0.7%; in the data set on LXFL 529L cells (setting [10]) it was 94 ± 2.8%. Besides, the results for the distribution cytosol in the data set on LXFL 529L cells (setting [9]) and in the data set with LXFL 529L cells (setting [10]) were 13 ± 0.7% and 6 ± 2.8%, respectively. The activity rating entry is recorded as “++ (tumor stasis T/C ≦ 25%)” in data set [3] (100 mg/kg/day i.p., days 1-5, 8-12, 15, 17, 19, 22) and “++ (tumor stasis T/C ≦ 25%)” in data set [3] (300 mg/kg/day i.p., days 1, 4, 8, 11, 15, 18, 22). Besides, the “tumor growth (relative tumor volume) compared to the vehicle control (in words)” value in [3] is listed as “significantly inhibited the tumor growth”. Moreover, the “anti-tumor activity (in words)” value in data set [3] (dosage of 100 mg/kg up to 300 mg/kg, FIG. 1 and FIG. 3) was “very high anti-tumor activity”. In addition, in data set [6], the “reduction of body weight (in words)” value is reported as “without any significant reduction of body weight”.
Regarding `O=C1Nc2ccccc2/C1=C1\C(=O)Nc2ccccc21` [Example 10, Isoindigo], the IC70 colony formation is below 1000 nM in the data set on MX1 (mammary); 8200 nM with BXF1301 (bladder); below 1000 nM in the data set with MEXF989 (melanoma); below 1000 nM in the data set with OVXF1355 (ovarian); 4500 nM in data set [4]; below 1000 nM in the data set with CXF280 (colon). Also, the IC70 colony formation (in data set [7]; in the data set with PAXF736 (pancreatic); with HT29X (colon); in the data set on MCF7X (mammary); in the data set on PAXF546 (pancreatic)) was below 1000 nM each time. Also, the IC50 in the data set on MX1 (mammary) is below 1000 nM; in the data set with BXF1301 (bladder) (setting [12]), 6000 nM; in the data set on MEXF989 (melanoma) (Homo sapiens, MEXF 989, read-out: IC50 colony formation), below 1000 nM; with OVXF1355 (ovarian) (setting [12]), below 1000 nM; in data set [4] (Homo sapiens, LXFL 529, read-out: IC50 colony formation), 2600 nM; in the data set on CXF280 (colon) (Homo sapiens), below 1000 nM. In addition, the IC50 (in data set [7]; in the data set with PAXF736 (pancreatic) (Homo sapiens); with HT29X (colon) (Homo sapiens); in the data set with MCF7X (mammary) (Homo sapiens); with PAXF546 (pancreatic) (setting [12])) was below 1000 nM each time. Besides, the activity rating entry is “− (inactive T/C > 50%)” in [3] (30 mg/kg/day i.p., days 1-5); “− (inactive T/C > 50%)” in data set [3] (100 mg/kg/day i.p., days 1-5); “+ (tumor inhibition T/C > 25-50%)” in [3] (300 mg/kg/day i.p., days 1-5).
Consider `O=C1Nc2ccc(S(=O)(=O)NCCO)cc2C1=C1Nc2ccccc2C1=O` [Example 13, Indirubin-5-sulfone(2-hydroxyethyl)amide], for which the IC70 colony formation in the data set on OVXF899 (ovarian) came out at 400 nM; in the data set on MEXF515LX (melanoma), 400 nM; in data set [8], 2600 nM; in [4], 5900 nM; with CXF280 (colon), 17300 nM; with MCF7X (mammary) it was 2100 nM. Moreover, the IC50 is 300 nM with OVXF899 (ovarian) (setting [11]); below 100 nM in the data set on MEXF515LX (melanoma) (setting [11]); 1100 nM in data set [8] (setting [11]); 3400 nM in [4] (setting [11]); 12000 nM in the data set with CXF280 (colon); 600 nM in the data set with MCF7X (mammary).
In the case of `c1ccc(-c2c(-c3[nH]c4ccccc4c3-c3ccccc3)[nH]c3ccccc23)cc1` [Example 14, Bis(3-phenylindol-2-yl)], the IC70 colony formation was 4800 nM in the data set with MX1 (mammary); 7200 nM in the data set on CXF280 (colon); 6700 nM in data set [7]; 3400 nM with HT29X (colon); 6200 nM in the data set with BXF1299 (bladder). The half-inhibitory concentration (IC50) is 2800 nM in the data set on MX1 (mammary); below 1000 nM in the data set on CXF280 (colon) (Homo sapiens); 4700 nM in [7]; 1600 nM in the data set on HT29X (colon) (Homo sapiens); 2700 nM in the data set with BXF1299 (bladder) (setting [12]). For the same molecule, the activity rating result in data set [3] (10 mg/kg/day i.p., days 1-5, 8-12) is “− (inactive T/C > 50%)”; in data set [3] (100 mg/kg/day i.p., days 1-5, 8-12), “+ (tumor inhibition T/C > 25-50%)”; in data set [3] (300 mg/kg/day i.p., days 1-5, 8-12), “+ (tumor inhibition T/C > 25-50%)”.

The values above are taken from US6664285B1, “Use of cell membrane penetrating indigoid bisindole derivatives” (priority 1999, dated 2003).
